From US11932589B2, “Hydrofluoroolefins and methods of using same” (3M INNOVATIVE PROPERTIES COMPANY, priority 2019, dated 2024) come the findings set out here.

Common to all, as to format: physicochemical
A short description of data set [1]: Largest Soluble Hydrocarbon (LSH) test. To be noted: hydrofluoroolefin:hydrocarbon about 1:1 to 1:2 by weight, longest hydrocarbon compatible without haze. How it is done:
Largest Soluble Hydrocarbon (LSH): The LSH of each hydrofluoroolefin compound was determined by mixing the compound with hydrocarbons of varying molecular weight (CnH2n+2, where n=9 to 24) in a hydrofluoroolefin:hydrocarbon ratio of about 1:1 to 1:2 by weight at room temperature (25° C.) and at 50° C. […] A larger value of n is interpreted herein to indicate a greater ability of the hydrofluoroolefin to clean hydrocarbons.

Data set [2] in a line: Flash point, small scale closed-cup apparatus (ASTM D-3278-96 e-1). As to conditions: closed-cup ASTM method; no flash point = non-flammable. The text has this: The acetate was thermally decomposed and the title product separated by fractional distillation. The structure was verified by GC-MS and NMR.
The nature of data set [3]: Open pan exposure to direct flame.

As to `C=CC(F)(C(F)C(F)(F)F)C(F)(F)F` (stereo not drawn) [Example 1, 3,4,5,5,5-pentafluoro-3-(trifluoromethyl)pent-1-ene], the “LSH (n in CnH2n+2)” value is 13 in data set [1] (25° C.) and 14 in data set [1] (50° C.). For the same compound, the Flash point result in data set [2] is “no flash point”.

Take `C=C(C)C1C(F)C(F)(F)C(F)(F)C1(F)F` (stereo not drawn) [Example 4, 1,1,2,2,3,3,4-heptafluoro-5-isopropenyl-cyclopentane]: the “LSH (n in CnH2n+2)” value is on record as 17 in data set [1] (25° C.) and 21 in data set [1] (50° C.). Moreover, the “Burning in an open pan upon exposure to direct flame” value in data set [3] is reported as “not observed to burn”.
